Patent US5380834A, “Immuno-suppressive agent” (Ishihara Sangyo Kaisha Ltd., priority 1992, dated 1995)
≈ marks a conversion by molar mass, not a printed value.

Key:
[1] = tested on: murine mixed lymphocyte reaction (spleen cells of BALB/c and C57BL/6 mice); assay: Effects on the murine mixed lymphocyte reaction (3H-TdR uptake); assay type: cell-based; details: Mus musculus, BALB/c + C57BL/6 spleen cells, 48 hours, read-out: IC50 value, b (murine mixed lymphocyte reaction)
Experimental: Using spleen cells of BALB/c and C57BL/6 mice, the effect of the compound of the formula (I) on the murine mixed lymphocyte reaction in both sides, was studied. Namely, spleen cells of both types of mice were mixed in an equal amount of 5×10^5 cells each, and the mixed cells were cultured together with the compound of the formula (I) for 48 hours on a microplate with 96 wells by a 10% FCS-RPMI solution (in an incubator, 5% CO2, at 37° C.). Then, 0.5 μCi of ^3 H-TdR was added thereto, and the mixture was further cultured for from 16 to 18 hours. Then, cells were collected by a cell harvester, and the radioactivity (dpm) of ^3 H-TdR uptaken into the cells, was measured. Such measured amounts of ^3 H-TdR uptaken into the cells were used as indices for the mixed lymphocyte reaction, and the radioactivity at each concentration (from 0.001 to 1,000 μg/ml) of the compound of the formula (I) was compared with the non-treated control value, to calculate the Ic50 value.
For the basic procedure for this test, reference was made to Selected methods in cellular immunology, p. 147-149 (translated by Katsuyuki Imai et al., published by Rikogakusha, (1982)).

[2] = tested on: murine bone mallow cells; assay: Effects on the murine bone mallow cells (proliferation, 3H-TdR uptake); assay type: cell-based, BALB/c mouse; details: Mus musculus, bone marrow cells; 20% L929 culture supernatant, 48 hours, 3H-TdR uptake; Tables 12-15; read-out: IC50 value, c (murine bone mallow cells)
Experimental: Bone mallow cells were removed from the femur of a BALB/c mouse and suspended in a 10% FCS-RPMI solution. The cell suspension was put into a plastic Petri dish having a diameter of 10 cm and left to stand still (in an incubator, 5% CO2, at 37° C.). Two hours later, only floating cells were recovered, and adhesion cells were removed. 1×10^5 floating cells were cultured for 48 hours together with a 20% culture supernatant of L929 fibroblastoma and the compound of the formula (I) on a microplate with 96 wells by a 10% FCS-RPMI solution (in an incubator, 5% CO2, at 37° C.). Then, 0.5 μCi of ^3 H-TdR was added thereto, and the mixture was further cultured for 4 hours. Then, cells were collected by a cell harvester, and the radioactivity (dpm) of ^3 H-TdR uptaken into the cells, was measured. Such measured amounts of ^3 H-TdR uptaken into the cells were used as indices for the proliferation of bone mallow cells, and the radioactivity at each concentration (from 0.001 to 1,000 μg/ml) of the compound of the formula (I) was compared with the control value where the L929 culture supernatant was added alone, to calculate the IC50 value. In these Tables 12 and 13, the results of the bone mallow cells are shown by (c).
For the basic procedure of this test, reference was made to Seikagakujikken Koza compiled by Japan Biochemistry Association, Vol. 5, p. 266-270 (published by Tokyo Kagaku Dojin in 1986).

[3] = tested on: IgE antibody production from murine spleen B cells; assay: Effects on the IgE antibody production from murine spleen cells (LPS + IL4); assay type: cell-based, BALB/c mouse; details: Mus musculus, B-cell, 168 h; spleen B cells, LPS 10 μg/ml, IL4 100 U/ml, 7 days, enzyme-immunoassay; read-out: IC50 value, IgE antibody production
Experimental: (§1) Using murine spleen B cells, the effects of the compound of the formula (I) on the IgGl, IgM and IgE antibody production induced by the stimulation by LPS (lipopolysaccharide; Product No. 520.02051, manufactured by Wako Junyaku) and IL4 (interleukin 4), were studied. Namely, spleen cells of a BALB/c mouse were treated with a murine anti-Thy-1 antibody (obtained from Chiba University) and a rabbit complement (Product No. 3051, manufactured by cedarlane) to remove T cells, and 3×10^5 spleen B cells were cultured for 7 days together with 10 μg/ml of LPS, 100 U/ml of mouse-recombinant IL4 (Product No. MIL-4C, manufactured by Genzyme) and each concentration (from […]) of the compound of the formula (I) on a microplate with 96 wells by a 10% FCS-RPMI solution (in an incubator, 5% CO2, at 37° C.).
(§2) For the basic procedure of this test, reference was made to The Journal of Immunology, Vol. 136, p. 4538, (1986).
(§3) The amount of each antibody in the cell culture supernatant hereby obtained, was measured by the following enzyme-immunoassay. Firstly, on a microplate with 96 wells, 1 μg/ml of a rabbit anti-mouse IgGl antibody (Product No. 36243, manufactured by Cappel), 1 μg/ml of a goat anti-mouse IgM antibody (Product No. 0611-0201, manufactured by Cappel) or 10 μg/ml of a rat anti-mouse IgE monoclonal antibody (Product No. LO-ME-2, manufactured by Experimental Immunology) was coated (50 μl/well, at room temperature for 60 minutes), and then a nonspecific bond was blocked by a 0.1% bovine serum albumin-containing 10 mM sodium phosphate buffer (pH 7.2) (at room temperature for 60 minutes). Then, the above-mentioned cell culture supernatant or its diluted solution was added in an amount of 50 μl/well and reacted at room temperature for 60 minutes. Further, an alkaline phosphatase-labeled rabbit anti-mouse IgGl antibody (Product No. 61-0122, manufactured by Zymet) diluted 1,000 times, an alkaline phosphatase-labeled rabbit anti-mouse IgM antibody (Product No. 61-6822, manufactured by Zymet) diluted 2,000 times, or an alkaline phosphatase-labeled goat anti-mouse IgE antibody (Product No. PA-284, manufactured by Binding Site) diluted 500 times was added in an amount of 50 μl/well and reacted at room temperature for 60 minutes. 100 μl/well of a 10% diethanol amine buffer solution (pH 9.8) containing p-nitrophenyl phosphate as an enzyme substrate, was reacted, and the absorbance at 405 nm was measured. The amount of each antibody was calculated from the calibration curve of each standard antibody, and the IC50 value of the compound of the formula (I) on the antibody production was calculated using as the control value a value obtained in the absence of the compound of the formula (I).

[4] = tested on: IgM antibody production from murine spleen B cells; assay: Effects on the IgM antibody production from murine spleen cells (LPS + IL4); assay type: cell-based, BALB/c mouse; details: Mus musculus, B-cell, 168 h; spleen B cells, LPS 10 μg/ml, IL4 100 U/ml, 7 days, enzyme-immunoassay; read-out: IC50 value, IgM antibody production
Experimental: as §1, §2, §3

[5] = tested on: IgGl antibody production from murine spleen B cells; assay: Effects on the IgGl antibody production from murine spleen cells (LPS + IL4); assay type: cell-based, BALB/c mouse; details: Mus musculus, B-cell, 168 h; spleen B cells, LPS 10 μg/ml, IL4 100 U/ml, 7 days, enzyme-immunoassay; read-out: IC50 value, IgGl antibody production
Experimental: as §1, §2, §3

[6] = tested on: murine thymocytes; assay: Effects on the mitogenic response by murine thymocytes (Con A stimulation, 3H-TdR uptake); assay type: cell-based, BALB/c murine; details: Mus musculus, Thymocyte; BALB/c thymocytes, Con A 5 μg/ml, 48 hours, 3H-TdR uptake; read-out: IC50 value, a (mitogenic response of murine thymocytes)
Experimental: Using BALB/c murine thymocytes, the effect of the compound of the formula (I) on the mitogenic response of lymphocytes to the stimulation by concanavalin A (hereinafter referred to simply as Con A, Product No. L-1000, manufactured by Vector Laboratories) was studied. Namely, 4×10^5 murine thymocytes were cultured for 48 hours on a microplate with 96 wells in a RPMI1640 solution containing 10% of a fetal bovine serum (hereinafter referred to simply as a 10% FCS-RPMI solution) together with Con A (5 μg/ml) and the compound of the formula (I) (in an incubator, 5% CO2, at 37° C.). Then, 0.5 μCi of ^3 H-thymidine (hereinafter referred to simply as ^3 H-TdR) was added thereto, and the mixture was further cultured for 4 hours. Then, cells were collected by a cell harvester, and the radioactivity (dpm) of ^3 H-TdR uptaken into cells was measured. Such measured amounts of ^3 H-TdR uptaken into the cells were used as indices of the mitogenic response of the murine thymocytes, and the radioactivity at each concentration (from 0.001 to 1,000 μg/ml) of the compound of the formula (I) was compared with the control value treated solely by Con A, to calculate IC50 value. In these Tables 12 and 13, the results of murine thymocytes are shown by (a).
For the basic procedure of this test, reference was made to Selected methods in cellular immunology, p. 144-146 (translated by Katsuyuki Imai et al., published by Rikogakusha, (1982)).

IC50 [1] [mg/L] | IC50 [3] [mg/L] | IC50 [4] [mg/L] | IC50 [5] [mg/L] | IC50 [6] [mg/L] | Structure (SMILES) | IC50 [2] [mg/L]
190 | 50 | 20 | 41 | 91 (≈ 341 µM) | O=C(O[C@H]1C=C[C@H]2CO[C@@H]1O2)c1ccc(Cl)cc1 [Compound 16] | 170 (≈ 637 µM)
560 | 140 | 10 | 1.5 | 180 (≈ 927 µM) | CCCC#C[C@]1(O)C=C[C@H]2CO[C@@H]1O2 [Compound 31] | 520 (≈ 2680 µM)
> 1000 | 0.0026 | 110 | 0.067 | 160 (≈ 868 µM) | CCCCO[C@H]1C=C[C@H]2CO[C@@H]1O2 [Compound 40] | > 1000
170 | 32 | 28 | 16 | 110 (≈ 379 µM) | CC(=O)Oc1ccccc1C(=O)O[C@H]1C=C[C@H]2CO[C@@H]1O2 [Compound 11] | 210 (≈ 723 µM)
170 | 43 | 69 | 72 | 95 (≈ 384 µM) | O=C(Nc1ccccc1)O[C@H]1C=C[C@H]2CO[C@@H]1O2 [Compound 23, 1,6-anhydro-3,4-dideoxy-2-O-phenylcarbamoyl-β-D-threo-hex-3-enopyranose] | 49 (≈ 198 µM)
– | < 0.001 | 0.68 | < 0.001 | – | O=C(/C=C/c1ccccc1)O[C@H]1C=C[C@H]2CO[C@@H]1O2 [Compound 18] | 370 (≈ 1430 µM)
– | 0.95 | > 1000 | 670 | – | CO[C@H]1C=C[C@H]2CO[C@@H]1O2 [Compound 41, 1,6-anhydro-3,4-dideoxy-2-O-methyl-β-D-threo-hex-3-enopyranose] | > 1000
– | 460 | 5.6 | 340 | – | CCCCCCCCCCCCCCCC(=O)O[C@@]1(C)C=C[C@H]2CO[C@@H]1O2 [Compound 33] | > 1000
– | 320 | 720 | 790 | – | CC(=O)O[C@H]1C=C[C@H]2CO[C@@H]1O2 [Compound 9] | > 1000
